Target: T1, TXNIP/TRX interaction (Homo sapiens, UniProt Q9H3M7)
T1 construct: endogenous in cells; host or cells: THP1 cells cultured under 25 mM glucose; nuclear cell extracts
T1 sequence (Q9H3M7 1-391): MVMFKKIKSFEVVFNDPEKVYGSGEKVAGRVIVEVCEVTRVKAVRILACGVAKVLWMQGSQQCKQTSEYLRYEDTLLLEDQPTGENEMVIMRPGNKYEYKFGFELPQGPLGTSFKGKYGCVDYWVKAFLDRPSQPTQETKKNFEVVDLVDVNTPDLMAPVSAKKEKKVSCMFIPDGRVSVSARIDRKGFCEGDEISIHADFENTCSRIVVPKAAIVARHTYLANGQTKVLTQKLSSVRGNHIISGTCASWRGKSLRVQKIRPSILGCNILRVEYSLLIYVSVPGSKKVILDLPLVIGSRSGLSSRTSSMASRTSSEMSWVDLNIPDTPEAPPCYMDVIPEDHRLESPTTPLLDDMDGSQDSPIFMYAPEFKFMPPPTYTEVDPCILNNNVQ
Assay: TXNIP/TRX co-immunoprecipitation in THP1 cells
Assay type: cell-based
Details: 25 mM glucose, 5 uM compound, up to 72 hours
Experimental: FIG. 8. Effects of C30 and C38 on TXNIP/TRX interaction. THP1 cells were cultured under 25 mM glucose with 5 uM C30 or C38 for 72 hours. Aliquots were taken at different time points as indicated and nuclear cell extracts were prepared. Standard co-IP was performed with mouse anti-TRX Ab overnight. Beads were washed with buffer and blots treated with rabbit anti-TXNIP antibody (Ab) for detection of the complex (upper band).
Experimental testing of small molecules: We developed several different bench-based assays to perform rigorous and reproducible tests for the predicted hit molecules. These assays include testing direct binding to TXNIP as well as functional assays including under diabetic high glucose conditions. The assays are: (1) drug affinity responsive target stability test that tests the direct binding of the compounds. In this assay, when a compound binds to its target molecule, it can reduce the rate of its proteolytic digestion. (2) This assay looks for compounds that can interfere with the interaction between TXNIP and TRX in THP-1 monocytes treated with high glucose. TXNIP is highly expressed in cells treated with high glucose, and therefore would have high concentration of TXNIP/TRX complexes in the cell extract. Co-immunoprecipitation was done in these extracts through adding TRX antibody, and then the effects of compounds added were tested. […]

TXNIP association/interaction with TRX (co-IP band) | Compound
significantly reduced | COc1cc(N2CC[C@@H](c3ccc4ccccc4c3)[C@H](O)C2)nc(N)n1 [Compound C30]
this interference was clearly reduced | c1ccc(CCNc2ncnc3c2oc2ccccc23)cc1 [Compound C38]

From patent publication US11964984B2, “TXNIP-TRX complex inhibitors and methods of using the same” (CITY OF HOPE, priority 2020, dated 2024)
